Results as given in US8076487B2, “Pyridone derivative and herbicide” (Kumiai Chemical Industry Co., Ltd., priority 2006, dated 2011).

Key:
Assay in all cases: Test Example 1: herbicidal effect by soil application to paddy field
Type in all cases: in vivo
[1] = test system: early watergrass (Echinochloa oryzicola Vasing); conditions: for herbicidal effect, Echinochloa oryzicola Vasing: paddy field soil application, active ingredient 1,000 g per 1 hectare, wettable powder added dropwise to water surface the day after sowing, examined on the 21st day after application; for herbicidal effect (index), Echinochloa oryzicola Vasing: soil application to paddy field, rated by standard of Table 34
Description: (§1) Test Example 1 Test on Herbicidal Effect by Soil Application to Paddy Field In a 100 cm2 plastic pot, paddy field soil was filled. After puddling and leveling, seeds of early watergrass (Echinochloa oryzicola […] (Monochoria vaginalis ([…] Japanese bulrush (Scirpus juncoides Roxb.) were sown, and water was filled to be flooded to a water depth of 3 cm. […] Then, on the 21st day after the application to the plants grew in a greenhouse, the herbicidal effect was examined in accordance with a standard shown in Table 34. [table]

[2] = test system: heartshape false pickerelweed (Monochoria vaginalis (Burm.f.) C.Presl); conditions: for herbicidal effect, Monochoria vaginalis (Burm. f.) C. Presl: paddy field soil application, active ingredient 1,000 g per 1 hectare, wettable powder added dropwise to water surface the day after sowing, examined on the 21st day after application; for herbicidal effect (index), Monochoria vaginalis (Burm.f.) C.Presl: soil application to paddy field, rated by standard of Table 34
Description: as §1

[3] = test system: Japanese bulrush (Scirpus juncoides Roxb.); conditions: for herbicidal effect, Scirpus juncoides Roxb.: paddy field soil application, active ingredient 1,000 g per 1 hectare, wettable powder added dropwise to water surface the day after sowing, examined on the 21st day after application; for herbicidal effect (index), Scirpus juncoides Roxb.: soil application to paddy field, rated by standard of Table 34
Description: as §1

Row | SMILES | herbicidal effect, Echinochloa oryzicola Vasing [1] | herbicidal effect, Monochoria vaginalis (Burm. f.) C. Presl [2] | herbicidal effect, Scirpus juncoides Roxb. [3] | herbicidal effect (index), Echinochloa oryzicola Vasing [1] | herbicidal effect (index), Monochoria vaginalis (Burm.f.) C.Presl [2] | herbicidal effect (index), Scirpus juncoides Roxb. [3]
1 | O=C1CCCC(O)=C1C(=O)c1ccc(C(F)(F)F)n(Cc2ccccc2[N+](=O)[O-])c1=O [I-115] | 5 (90% or more of herbicidal effect and crop phytotoxicity) | 5 (90% or more of herbicidal effect and crop phytotoxicity) | 5 (90% or more of herbicidal effect and crop phytotoxicity) |  |  | 
2 | COc1ccc(-n2c(C(F)(F)F)ccc(C(=O)c3cnn(C)c3O)c2=O)cc1 [IV-66] | 5 (90% or more of herbicidal effect and crop phytotoxicity) | 5 (90% or more of herbicidal effect and crop phytotoxicity) | 5 (90% or more of herbicidal effect and crop phytotoxicity) |  |  | 
3 | Cn1c(C(F)(F)F)ccc(C(=O)C(C#N)C(=O)C2CC2)c1=O (stereo not drawn) [V-9, 2-cyano-3-cyclopropyl-1-[1,2-dihydro-1-methyl-2-oxo-6-(trifluoromethyl)pyridin-3-yl]propane-1,3-dione] |  |  |  | 5 (90% or more of herbicidal effect and crop phytotoxicity) | 5 (90% or more of herbicidal effect and crop phytotoxicity) | 5 (90% or more of herbicidal effect and crop phytotoxicity)
4 | Cn1c(C(F)(F)Cl)ccc(C(=O)C2=C(O)CCCC2=O)c1=O [I-225] | 5 (90% or more of herbicidal effect and crop phytotoxicity) | 5 (90% or more of herbicidal effect and crop phytotoxicity) | 5 (90% or more of herbicidal effect and crop phytotoxicity) |  |  | 
5 | Cc1ccc(S(=O)(=O)Oc2c(C(=O)c3ccc(C(F)(F)F)n(C)c3=O)cnn2C)cc1 [IV-194, 4-[1,2-dihydro-1-methyl-2-oxo-6-(trifluoromethyl)pyridine-3-carbonyl]-1-methyl-5-tosyloxy-1H-pyrazole] | 5 (90% or more of herbicidal effect and crop phytotoxicity) | 5 (90% or more of herbicidal effect and crop phytotoxicity) | 5 (90% or more of herbicidal effect and crop phytotoxicity) |  |  | 
6 | CCCS(=O)(=O)Oc1c(C(=O)c2ccc(C(F)(F)F)n(CC(C)OCc3ccccc3)c2=O)cnn1C (stereo not drawn) [IV-49] | 5 (90% or more of herbicidal effect and crop phytotoxicity) | 5 (90% or more of herbicidal effect and crop phytotoxicity) | 3 (50 to less than 70% of herbicidal effect and crop phytotoxicity) |  |  | 
7 | COc1cccc(Cn2c(C(F)(F)F)ccc(C(=O)c3cnn(C)c3O)c2=O)c1 [IV-103] | 4 (70 to less than 90% of herbicidal effect and crop phytotoxicity) | 5 (90% or more of herbicidal effect and crop phytotoxicity) | 4 (70 to less than 90% of herbicidal effect and crop phytotoxicity) |  |  | 
8 | Cn1c(C(F)(F)F)ccc(C(=O)C2=C(Sc3ccc(Cl)cc3)CCCC2=O)c1=O [II-13] | 5 (90% or more of herbicidal effect and crop phytotoxicity) | 5 (90% or more of herbicidal effect and crop phytotoxicity) | 5 (90% or more of herbicidal effect and crop phytotoxicity) |  |  | 
9 | CCCS(=O)(=O)Oc1c(C(=O)c2ccc(C(F)(F)F)n(Cc3cccc(OC)c3)c2=O)cnn1C [IV-104] | 5 (90% or more of herbicidal effect and crop phytotoxicity) | 5 (90% or more of herbicidal effect and crop phytotoxicity) | 4 (70 to less than 90% of herbicidal effect and crop phytotoxicity) |  |  | 
10 | COc1ccccc1-n1c(C(F)(F)F)ccc(C(=O)c2cnn(C)c2O)c1=O [IV-64] | 5 (90% or more of herbicidal effect and crop phytotoxicity) | 5 (90% or more of herbicidal effect and crop phytotoxicity) | 5 (90% or more of herbicidal effect and crop phytotoxicity) |  |  | 
11 | Cc1ccc(S(=O)(=O)Oc2c(C(=O)c3ccc(C(F)(F)F)n(CC4CCCO4)c3=O)c(C)nn2C)cc1 (stereo not drawn) [IV-240] | 5 (90% or more of herbicidal effect and crop phytotoxicity) | 5 (90% or more of herbicidal effect and crop phytotoxicity) | 5 (90% or more of herbicidal effect and crop phytotoxicity) |  |  | 
12 | Cc1ccc(C(=O)C2=C(O)CCCC2=O)c(=O)n1-c1cccc(C(F)(F)F)c1 [I-235] | 5 (90% or more of herbicidal effect and crop phytotoxicity) | 5 (90% or more of herbicidal effect and crop phytotoxicity) | 5 (90% or more of herbicidal effect and crop phytotoxicity) |  |  | 
13 | COc1cccc(-n2c(C(F)(F)F)ccc(C(=O)C3=C(O)CCCC3=O)c2=O)c1 [I-77] | 5 (90% or more of herbicidal effect and crop phytotoxicity) | 5 (90% or more of herbicidal effect and crop phytotoxicity) | 5 (90% or more of herbicidal effect and crop phytotoxicity) |  |  | 
14 | Cn1ncc(C(=O)c2ccc(C(F)(F)F)n(C)c2=O)c1OCc1ccc(Cl)cc1 [IV-191] | 5 (90% or more of herbicidal effect and crop phytotoxicity) | 5 (90% or more of herbicidal effect and crop phytotoxicity) | 5 (90% or more of herbicidal effect and crop phytotoxicity) |  |  | 
15 | Cc1nn(C)c(O)c1C(=O)c1ccc(C(F)(F)F)n(CC2CCCO2)c1=O (stereo not drawn) [IV-238] | 4 (70 to less than 90% of herbicidal effect and crop phytotoxicity) | 5 (90% or more of herbicidal effect and crop phytotoxicity) | 5 (90% or more of herbicidal effect and crop phytotoxicity) |  |  | 
16 | COCCCn1c(C(F)(F)F)ccc(C(=O)C2=C(Sc3ccccc3)CCCC2=O)c1=O [II-30] | 5 (90% or more of herbicidal effect and crop phytotoxicity) | 5 (90% or more of herbicidal effect and crop phytotoxicity) | 5 (90% or more of herbicidal effect and crop phytotoxicity) |  |  | 
17 | Cc1cccc(COc2c(C(=O)c3ccc(C(F)(F)F)n(CC4CCCO4)c3=O)cnn2C)n1 (stereo not drawn) [IV-138] | 5 (90% or more of herbicidal effect and crop phytotoxicity) | 5 (90% or more of herbicidal effect and crop phytotoxicity) | 5 (90% or more of herbicidal effect and crop phytotoxicity) |  |  | 
18 | Cn1c(C(F)(F)F)ccc(C(=O)C2=C(Sc3ccccc3)CCCC2=O)c1=O [II-8] | 5 (90% or more of herbicidal effect and crop phytotoxicity) | 5 (90% or more of herbicidal effect and crop phytotoxicity) | 5 (90% or more of herbicidal effect and crop phytotoxicity) |  |  | 
19 | Cn1c(C(F)(F)F)ccc(C(=O)C2=C(n3cccn3)CCCC2=O)c1=O [II-17] | 5 (90% or more of herbicidal effect and crop phytotoxicity) | 5 (90% or more of herbicidal effect and crop phytotoxicity) | 5 (90% or more of herbicidal effect and crop phytotoxicity) |  |  | 
20 | O=C1CCCC(O)=C1C(=O)c1ccc(C(F)(F)F)n(-c2ccc(NS(=O)(=O)C(F)(F)F)cc2)c1=O [I-97] | 4 (70 to less than 90% of herbicidal effect and crop phytotoxicity) | 5 (90% or more of herbicidal effect and crop phytotoxicity) | 4 (70 to less than 90% of herbicidal effect and crop phytotoxicity) |  |  | 
21 | CCCn1c(C(F)(F)F)c(C)cc(C(=O)C(C#N)=C(O)C2CC2)c1=O [V-24] |  |  |  | 5 (90% or more of herbicidal effect and crop phytotoxicity) | 5 (90% or more of herbicidal effect and crop phytotoxicity) | 5 (90% or more of herbicidal effect and crop phytotoxicity)
22 | CCCS(=O)(=O)Oc1c(C(=O)c2ccc(Cl)n(C)c2=O)cnn1C [IV-242] | 5 (90% or more of herbicidal effect and crop phytotoxicity) | 4 (70 to less than 90% of herbicidal effect and crop phytotoxicity) | 5 (90% or more of herbicidal effect and crop phytotoxicity) |  |  | 
23 | Cn1ncc(C(=O)c2ccc(C(F)(F)F)n(CC3CCCO3)c2=O)c1OCc1ccc(C(F)(F)F)cc1 (stereo not drawn) [IV-137] | 4 (70 to less than 90% of herbicidal effect and crop phytotoxicity) | 4 (70 to less than 90% of herbicidal effect and crop phytotoxicity) | 3 (50 to less than 70% of herbicidal effect and crop phytotoxicity) |  |  | 
24 | Cn1c(C(F)(F)F)ccc(C(=O)C2=C(Sc3ccccc3)CC(C)(C)CC2=O)c1=O [II-19] | 5 (90% or more of herbicidal effect and crop phytotoxicity) | 5 (90% or more of herbicidal effect and crop phytotoxicity) | 5 (90% or more of herbicidal effect and crop phytotoxicity) |  |  | 
25 | Cc1ccc(S(=O)(=O)Oc2c(C(=O)c3ccc(C(F)(F)F)n(CC4CCCO4)c3=O)cnn2C)cc1 (stereo not drawn) [IV-141] | 5 (90% or more of herbicidal effect and crop phytotoxicity) | 5 (90% or more of herbicidal effect and crop phytotoxicity) | 5 (90% or more of herbicidal effect and crop phytotoxicity) |  |  | 
